# Results as given in ChEMBL document CHEMBL4229379, “Synthesis and structure-activity relationship of novel bisindole amidines active against MDR Gram-positive and Gram-negative bacteria” (Eur J Med Chem, 2018).
# What was measured:
# Klebsiella pneumoniae [1] = assay: Antibacterial activity against extended-spectrum beta-lactamase harboring Klebsiella pneumoniae ATCC 700603 after 18 hrs by CLSI broth microdilution method; format: functional; details: Klebsiella pneumoniae, 700603, 18 h
# Klebsiella pneumoniae [2] = assay: Antibacterial activity against extended-spectrum beta-lactamase deficient Klebsiella pneumoniae 7 after 18 hrs by CLSI broth microdilution method; format: functional; details: Klebsiella pneumoniae, 7, 18 h
# Enterococcus faecalis [3] = assay: Antibacterial activity against vancomycin-sensitive Enterococcus faecalis 12-5 after 18 hrs by CLSI broth microdilution method; format: functional; details: 12-5, 18 h
# Staphylococcus aureus [4] = assay: Antibacterial activity against methicillin-resistant Staphylococcus aureus 12-33 after 18 hrs by CLSI broth microdilution method; format: functional; details: 12-33, 18 h
# Staphylococcus aureus [5] = assay: Antibacterial activity against methicillin-sensitive Staphylococcus aureus ATCC 29213 after 18 hrs by CLSI broth microdilution method; format: functional; details: ATCC 29213, 18 h
# Proteus mirabilis = assay: Antibacterial activity against Proteus mirabilis 12-6 after 18 hrs by CLSI broth microdilution method; format: functional; details: 12-6, 18 h
# [6] = test system: Acinetobacter calcoaceticus; assay: Antibacterial activity against Acinetobacter calcoaceticus ATCC 19606 after 18 hrs by CLSI broth microdilution method; format: functional; details: ATCC 19606, 18 h
# [7] = test system: Stenotrophomonas maltophilia; assay: Antibacterial activity against Stenotrophomonas maltophilia ATCC 13636 after 18 hrs by CLSI broth microdilution method; format: functional; details: ATCC 13636, 18 h
# [8] = test system: Staphylococcus epidermidis; assay: Antibacterial activity against methicillin-sensitive Staphylococcus epidermidis ATCC 12228 after 18 hrs by CLSI broth microdilution method; format: functional; details: ATCC 12228, 18 h
# Pseudomonas aeruginosa [9] = assay: Antibacterial activity against Pseudomonas aeruginosa PAO1 after 18 hrs by CLSI broth microdilution method; format: functional; details: PAO1, 18 h
# Enterococcus faecalis [10] = assay: Antibacterial activity against vancomycin-resistant Enterococcus faecalis 09-9 after 18 hrs by CLSI broth microdilution method; format: functional; details: 09-9, 18 h
# Staphylococcus aureus [11] = assay: Antibacterial activity against methicillin-resistant Staphylococcus aureus ATCC 33591 after 18 hrs by CLSI broth microdilution method; format: functional; details: ATCC 33591, 18 h
# Staphylococcus aureus [12] = assay: Antibacterial activity against methicillin-sensitive Staphylococcus aureus 15 after 18 hrs by CLSI broth microdilution method; format: functional; details: Staphylococcus aureus, 15, 18 h
# Klebsiella pneumoniae [13] = assay: Antibacterial activity against extended-spectrum beta-lactamase harboring Klebsiella pneumoniae 12-8 after 18 hrs by CLSI broth microdilution method; format: functional; details: 12-8, 18 h
# Enterococcus faecium [14] = assay: Antibacterial activity against vancomycin-resistant Enterococcus faecium ATCC 700221 after 18 hrs by CLSI broth microdilution method; format: functional; details: ATCC 700221, 18 h
# [15] = test system: Staphylococcus epidermidis; assay: Antibacterial activity against methicillin-sensitive Staphylococcus epidermidis 12-6 after 18 hrs by CLSI broth microdilution method; format: functional; details: 12-6, 18 h
# Citrobacter freundii = assay: Antibacterial activity against Citrobacter freundii ATCC 43864 after 18 hrs by CLSI broth microdilution method; format: functional; details: ATCC 43864, 18 h
# Providencia rettgeri = assay: Antibacterial activity against Providencia rettgeri ATCC 31052 after 18 hrs by CLSI broth microdilution method; format: functional; details: ATCC 31052, 18 h
# Escherichia coli [16] = assay: Antibacterial activity against extended-spectrum beta-lactamase deficient Escherichia coli ATCC 25922 after 18 hrs by CLSI broth microdilution method; format: functional; details: ATCC 25922, 18 h
# Enterococcus faecium [17] = assay: Antibacterial activity against vancomycin-resistant Enterococcus faecium 12-1 after 18 hrs by CLSI broth microdilution method; format: functional; details: 12-1, 18 h
# Escherichia coli [18] = assay: Antibacterial activity against extended-spectrum beta-lactamase deficient Escherichia coli 1515 after 18 hrs by CLSI broth microdilution method; format: functional; details: Escherichia coli, 1515, 18 h
# Enterococcus faecium [19] = assay: Antibacterial activity against vancomycin-sensitive Enterococcus faecium 12-3 after 18 hrs by CLSI broth microdilution method; format: functional; details: 12-3, 18 h
# [20] = Cytotoxicity against HEK293T cells assessed as reduction in cell viability after 48 hrs by MTS assay; format: cell-based, HEK-293T; details: human
# Proteus vulgaris = assay: Antibacterial activity against Proteus vulgaris ATCC 29905 after 18 hrs by CLSI broth microdilution method; format: functional; details: ATCC 29905, 18 h
# Pseudomonas aeruginosa [21] = assay: Antibacterial activity against Pseudomonas aeruginosa 12-16 after 18 hrs by CLSI broth microdilution method; format: functional; details: 12-16, 18 h
# Klebsiella pneumoniae [22] = assay: Antibacterial activity against extended-spectrum beta-lactamase deficient Klebsiella pneumoniae 12-4 after 18 hrs by CLSI broth microdilution method; format: functional; details: 12-4, 18 h
# Staphylococcus aureus [23] = assay: Antibacterial activity against methicillin-sensitive Staphylococcus aureus 12-28 after 18 hrs by CLSI broth microdilution method; format: functional; details: 12-28, 18 h
# Klebsiella aerogenes = assay: Antibacterial activity against Enterobacter aerogenes ATCC 13048 after 18 hrs by CLSI broth microdilution method; format: functional; details: ATCC 13048, 18 h
# Pseudomonas aeruginosa [24] = assay: Antibacterial activity against Pseudomonas aeruginosa ATCC 27853 after 18 hrs by CLSI broth microdilution method; format: functional; details: ATCC 27853, 18 h
# [25] = test system: Staphylococcus epidermidis; assay: Antibacterial activity against methicillin-resistant Staphylococcus epidermidis 12-8 after 18 hrs by CLSI broth microdilution method; format: functional; details: 12-8, 18 h
# Enterococcus faecalis [26] = assay: Antibacterial activity against vancomycin-resistant Enterococcus faecalis ATCC 51299 after 18 hrs by CLSI broth microdilution method; format: functional; details: ATCC 51299, 18 h
# Escherichia coli [27] = assay: Antibacterial activity against extended-spectrum beta-lactamase harboring Escherichia coli 12-15 after 18 hrs by CLSI broth microdilution method; format: functional; details: 12-15, 18 h
# Escherichia coli [28] = assay: Antibacterial activity against extended-spectrum beta-lactamase deficient Escherichia coli 12-14 after 18 hrs by CLSI broth microdilution method; format: functional; details: 12-14, 18 h
# Serratia marcescens = assay: Antibacterial activity against Serratia marcescens ATCC 21074 after 18 hrs by CLSI broth microdilution method; format: functional; details: ATCC 21074, 18 h
# Klebsiella pneumoniae [29] = assay: Antibacterial activity against new delhi metallo-beta-lactamase-1 harboring Klebsiella pneumoniae ATCC BAA-2146 after 18 hrs by CLSI broth microdilution method; format: functional; details: ATCC BAA-2146, 18 h
# Enterococcus faecalis [30] = assay: Antibacterial activity against vancomycin-sensitive Enterococcus faecalis ATCC 29212 after 18 hrs by CLSI broth microdilution method; format: functional; details: ATCC 29212, 18 h
# Enterobacter cloacae = assay: Antibacterial activity against Enterobacter cloacae ATCC 43560 after 18 hrs by CLSI broth microdilution method; format: functional; details: ATCC 43560, 18 h
structure (smiles),measurement,setting,value
N=C(c1ccc2cc(-c3ccc(-c4cc5ccc(C(=N)N6CCOCC6)cc5[nH]4)cc3)[nH]c2c1)N1CCOCC1,MIC,Klebsiella pneumoniae [1],16 µg/mL
same,MIC,Klebsiella pneumoniae [2],8 µg/mL
same,MIC,Enterococcus faecalis [3],8 µg/mL
same,MIC,Staphylococcus aureus [4],0.5 µg/mL
same,MIC,Staphylococcus aureus [5],1 µg/mL
same,MIC,Proteus mirabilis,32 µg/mL
same,MIC,[6],32 µg/mL
same,MIC,[7],> 128 µg/mL
same,MIC,[8],0.5 µg/mL
same,MIC,Pseudomonas aeruginosa [9],> 128 µg/mL
same,MIC,Enterococcus faecalis [10],4 µg/mL
same,MIC,Staphylococcus aureus [11],0.5 µg/mL
same,MIC,Staphylococcus aureus [12],0.5 µg/mL
same,MIC,Klebsiella pneumoniae [13],8 µg/mL
same,MIC,Enterococcus faecium [14],4 µg/mL
same,MIC,[15],0.5 µg/mL
same,MIC,Citrobacter freundii,4 µg/mL
same,MIC,Providencia rettgeri,8 µg/mL
same,MIC,Escherichia coli [16],4 µg/mL
same,MIC,Enterococcus faecium [17],2 µg/mL
same,MIC,Escherichia coli [18],4 µg/mL
same,MIC,Enterococcus faecium [19],4 µg/mL
same,CC50 at 48 h,[20],16.4 µg/mL
same,MIC,Proteus vulgaris,8 µg/mL
same,MIC,Pseudomonas aeruginosa [21],> 128 µg/mL
same,MIC,Klebsiella pneumoniae [22],16 µg/mL
same,MIC,Staphylococcus aureus [23],0.5 µg/mL
same,MIC,Klebsiella aerogenes,8 µg/mL
same,MIC,Pseudomonas aeruginosa [24],> 128 µg/mL
same,MIC,[25],0.5 µg/mL
same,MIC,Enterococcus faecalis [26],4 µg/mL
same,MIC,Escherichia coli [27],4 µg/mL
same,MIC,Escherichia coli [28],4 µg/mL
same,MIC,Serratia marcescens,> 128 µg/mL
same,MIC,Klebsiella pneumoniae [29],8 µg/mL
same,MIC,Enterococcus faecalis [30],4 µg/mL
same,MIC,Enterobacter cloacae,4 µg/mL
CN(C)C(=N)c1ccc2cc(-c3cnc(-c4cc5ccc(C(=N)N(C)C)cc5[nH]4)s3)[nH]c2c1,MIC,Klebsiella pneumoniae [1],8 µg/mL
same,MIC,Klebsiella pneumoniae [2],4 µg/mL
same,MIC,Enterococcus faecalis [3],2 µg/mL
same,MIC,Staphylococcus aureus [4],1 µg/mL
same,MIC,Staphylococcus aureus [5],0.25 µg/mL
same,MIC,Proteus mirabilis,8 µg/mL
same,MIC,[6],16 µg/mL
same,MIC,[7],16 µg/mL
same,MIC,[8],0.12 µg/mL
same,MIC,Pseudomonas aeruginosa [9],> 64 µg/mL
same,MIC,Enterococcus faecalis [10],0.5 µg/mL
same,MIC,Staphylococcus aureus [11],0.25 µg/mL
same,MIC,Staphylococcus aureus [12],0.25 µg/mL
same,MIC,Klebsiella pneumoniae [13],4 µg/mL
same,MIC,Enterococcus faecium [14],1 µg/mL
same,MIC,[15],0.125 µg/mL
same,MIC,Citrobacter freundii,4 µg/mL
same,MIC,Providencia rettgeri,2 µg/mL
same,MIC,Escherichia coli [16],2 µg/mL
same,MIC,Enterococcus faecium [17],1 µg/mL
same,MIC,Escherichia coli [18],2 µg/mL
same,MIC,Enterococcus faecium [19],2 µg/mL
same,CC50 at 48 h,[20],2.01 µg/mL
same,MIC,Proteus vulgaris,4 µg/mL
same,MIC,Pseudomonas aeruginosa [21],> 64 µg/mL
same,MIC,Klebsiella pneumoniae [22],4 µg/mL
same,MIC,Staphylococcus aureus [23],0.5 µg/mL
same,MIC,Klebsiella aerogenes,4 µg/mL
same,MIC,Pseudomonas aeruginosa [24],16 µg/mL
same,MIC,[25],0.25 µg/mL
same,MIC,Enterococcus faecalis [26],1 µg/mL
same,MIC,Escherichia coli [27],2 µg/mL
same,MIC,Escherichia coli [28],2 µg/mL
same,MIC,Serratia marcescens,8 µg/mL
same,MIC,Klebsiella pneumoniae [29],4 µg/mL
same,MIC,Enterococcus faecalis [30],1 µg/mL
same,MIC,Enterobacter cloacae,2 µg/mL
